Test results from patent US20170049777A1, “COMPOSITIONS, METHODS AND USES FOR THE TREATMENT OF DIABETIC NEUROPATHIES” (Pharnext, priority 2014, published 2017).
Read-outs that look alike come from different tables or passages of the source.

Assays:
[1] = system: DRG explants from STZ rats; assay: Neurite outgrowth from dorsal root ganglia explants from STZ rats; type: cell-based, rat
[2] = system: sensory neurons and Schwann cells co-culture; assay: Myelination in co-culture of sensory neurons and Schwann cells under high glucose (MBP expression); type: cell-based, rat; design: key: +: significant improvement in length of myelinated axons when compared to non-treated conditions as assessed by MBP expression; conditions: 45 mmol/L glucose, 50 μg/mL ascorbic acid, MBP staining, 5, 9, 10, 11 and 13 days
Protocol: A model of co-culture was used as an in vitro model of diabetes. This model of myelination consists in co-culturing sensory neurons and Schwann cells from Wistar rats dissociated dorsal root ganglia (DRG).
The aim of this study is to assess the effect of tested compounds and compound combinations on myelination process under high glucose conditions mimicking diabetes. The effect of the tested compounds on myelination, either in high glucose concentration or not, is assessed by evaluating Myelin Basic Protein (MBP) expression in presence of ascorbic acid.
Fifteen days gestation pregnant female rats are killed by cervical dislocation. The embryos are removed from the uterus and are at similar foetal stage of development.
Rat DRG are cultured as previously described by Cosgaya et al. and Rangaraju et al..
Each embryo is dispatched on numerating petri dish (35 mm of diameter). DRG of each embryo is collected, placed in ice-cold medium of Leibovitz (L15, Invitrogen). At the end of the dissection, DRG of TGM are pooled and dissociated by trypsinization (trypsin EDTA, 0.05%; Invitrogen) for 20 min at 37° C. The reaction is stopped by addition of DMEM containing 10% of foetal bovine serum (FBS) in the presence of DNAase I (Roche). The suspension is triturated with a 10 mL pipette. Cells are then centrifuged at 350×g for 10 min at room temperature. The pellet of dissociated cells is resuspended in neurobasal medium (Invitrogen) containing 2% of B27 (Invitrogen), 1% of penicillin-streptomycin (Invitrogen), 1% de L glutamine and 50 ng/mL NGF (Sigma). This medium is the neuronal medium. Viable cells are counted in a Neubauer cytometer using the trypan blue exclusion test (Sigma) and seeded on the basis of 10 000 cells per well in 96 well-plates (Greiner) treated with poly-L-lysine. The plates are maintained at 37° C. in a humidified incubator, in an atmosphere of air (95%)-CO2 (5%). Half of the standard neuronal culture medium is changed every other day. The cultures are maintained in standard neurobasal medium for 7 days to allow Schwann cells to populate the sensory neuron neurites. On day 7, the cultures are fed with standard neuronal medium supplemented or not with 50 μg/mL ascorbic acid in order to initiate basal lamina formation and myelination.
On Day 7, the Following Tested Compounds (Alone or in Combination) Listed in Table 5 are added in the medium with 50 μg/mL ascorbic acid. Basal glucose in culture medium is 25 mmol/L, which is necessary for DRG neuron survival. To produce a hyperglycemic insult, 20 mmol/L additional glucose (total 45 mmol/L glucose) is added to the media for the period specified.
The tested compounds are incubated for 5 different times: 5, 9, 10, 11 and 13 days.
Three separate and independent cultures of DRG are done. These conditions are assessed in presence of ascorbic acid, 6 wells per condition. The solution ready to use of all tested compounds are extemporaneously prepared from a stock solution, stored at −20° C. This solution is prepared once a week. Half of the standard neuronal medium supplemented with tested compounds, ascorbic acid (each at the concentration 1×) and glucose are changed every other day.
After 5, 9, 10, 11 and 13 days of incubation, cells are fixed by a cold solution of ethanol (95%) and acetic acid (5%) for 10 min. The cells are permeabilized and blocked with PBS containing 0.1% saponin and 10% goat serum for 15 min. Then, the cells are incubated with a specific marker of myelin: polyclonal antibody anti-myelin basic protein (MBP) antibody (Sigma 118K0431).
Nuclei of neurons are labelled by a fluorescent marker (Hoechst solution, SIGMA ref B1155).
Per well, 20 pictures are taken using InCell Analyzer™ 1000 (GE Healthcare) with 20× magnification. All images are taken in the same conditions. Analysis of total length of myelinated axons was automatically done (length and area around axons) using
Developer software (GE Healthcare). All values will be expressed as mean+/−s.e.mean. […]

[3] = system: rat cortical neurons; assay: Neurite network length of rat cortical primary neurons under high glucose; type: cell-based; conditions: 45 mmol/L glucose, 24 hours, MAP-2 staining
Protocol: Rat cortical neurons are cultured as described by Singer et al.. Briefly, pregnant female rats of 15 days gestation are killed by cervical dislocation (rats Wistar) and the foetuses are removed from the uterus. The cortex is then removed and placed in ice-cold medium of Leibovitz (L15) containing 2% of Penicillin 10.000 U/mL and Streptomycin 10 mg/mL and 1% of bovine serum albumin (BSA). Cortices are dissociated by trypsin for 20 min at 37° C. (0.05%). The reaction is stopped by the addition of Dulbecco's modified Eagle's medium (DMEM) containing DNasel grade II and 10% of foetal calf serum (FCS). Cells are then mechanically dissociated by 3 serial passages through a 10 mL pipette and centrifuged at 515×g for 10 min at +4° C. The supernatant is discarded and the pellet of cells is re-suspended in a defined culture medium consisting of Neurobasal supplemented with B27 (2%), L-glutamine (0.2 mM), 2% of PS solution and 10 ng/mL of BDNF. Viable cells are counted in a Neubauer cytometer using the trypan blue exclusion test. The cells are seeded at a density of 30 000 cells/well in 96 well-plates (wells were pre-coated with poly-L-lysine (10 μg/mL)) and were cultured at +37° C. in a humidified air (95%)/CO2 (5%) atmosphere.
After 10 days of culture, cells are incubated with drugs and their combinations. After 1 hour, medium glucose concentration is raised to 45 mmol/L glucose in defined medium without BDNF but together with tested compound. Cortical neurons are so cultured for 24 hours. BDNF (10 ng/mL) is used as a positive (neuroprotective) control. Three independent cultures were performed per condition, 6 wells per condition.
After 24 hours of culture in high glucose conditions, the supernatant is taken off and the cortical neurons are fixed by a cold solution of ethanol (95%) and acetic acid (5%) for 5 min. After permeabilization with 0.1% of saponin, cells are blocked for 2 hours with PBS containing 1% foetal calf serum. Then, cells are incubated with monoclonal antibody anti microtubule-associated-protein 2 (MAP-2; Sigma). This antibody stains specifically cell bodies and neurites of neurons. […] Nuclei of neurons are labelled by a fluorescent marker (Hoechst solution, Sigma).
Per well, 10 pictures are taken using InCell Analyzer™ 1000 (GE Healthcare) with 20× magnification. All pictures are taken in the same conditions. Analysis of the neurite network is done using Developer software (GE Healthcare) in order to assess the total length of neurite network.

[4] = spinal cord explants from diabetic rats cultured 24-48-72 hours with compound

Structure (SMILES)	protecting DRG from apoptosis and/or improving neurite outgrowth [1]	Protection of neurite network, DRG explants from STZ rats [1, 4]	Myelinated axon length [2]	Protection of neurite network, rat cortical primary cell culture [3]	Protection of neurite network, DRG explants from STZ rats [1]
C1COC(NC(C2CC2)C2CC2)=N1 [rilmenidine]	particularly efficient	+	+	+	
C[C@@H](NCCCc1cccc(C(F)(F)F)c1)c1cccc2ccccc12 [cinacalcet]	particularly efficient	+	+	+	
CCN(CC)C(=O)N1CCN(C)CC1 [diethylcarbamazine]	particularly efficient	+	+	+	
CN(C)CC[C@@H](c1ccc(Br)cc1)c1ccccn1 [dexbrompheniramine]	particularly efficient	+	+	+	
CCN(CC)CCOCCOC(=O)C1(c2ccccc2)CCCC1 [carbetapentane]	particularly efficient	+	+	+	
Cc1cccc(C)c1OCC(C)N (stereo not drawn) [mexiletine]	particularly efficient	+	+	+	
CC(=O)NCCCS(=O)(=O)O [acamprosate]	particularly efficient	+	+	+	
CN/C(=N/CCSCc1nc[nH]c1C)NC#N [cimetidine]	particularly efficient	+	+	+	
Nc1nc(N)c2nc(-c3ccccc3)c(N)nc2n1 [triamterene]	particularly efficient	+	+	+	
CC(C(O)c1ccc(O)cc1)N1CCC(Cc2ccccc2)CC1 (stereo not drawn) [ifenprodil]	particularly efficient	+	+	+	
C[C@@H]1CC(=O)NN=C1c1ccc(NN=C(C#N)C#N)cc1 [levosimendan]	particularly efficient	+	+	+	
Cc1cccc(Nc2ccncc2S(=O)(=O)NC(=O)NC(C)C)c1 [torasemide]	particularly efficient	+	+	+	
NCC(CC(=O)O)c1ccc(Cl)cc1 (stereo not drawn) [baclofen]	particularly efficient		+	+	+
Cc1ccc(C(=O)C(C)CN2CCCCC2)cc1 (stereo not drawn) [tolperisone]	particularly efficient	+	+	+	
CO[C@]12C[C@@H](COC(=O)c3cncc(Br)c3)CN(C)[C@@H]1Cc1cn(C)c3cccc2c13 [nicergoline]	particularly efficient	+	+	+	
